Settings: for log10 BCF / log10 biotransformation half-life (days): fish

SMILES	melting point	boiling point	other results
O=c1c(O)c(-c2ccc(O)cc2O)oc2cc(O)cc(O)c12	304 °C	–	–
C=CCl	-154 °C	-13.3 °C	log10 Henry constant (atm·m³/mol): -1.56; log10 vapour pressure (mmHg): 3.47
CC(=O)[C@H]1CC[C@H]2[C@@H]3CC=C4C[C@@H](O)CC[C@]4(C)[C@H]3CC[C@]12C	192 °C	–	–
CC1CN(C)CCN1C (configuration not stated)	–	150 °C	–
CC(C)(S)C(=O)O	47 °C	–	–
Cc1ccc2cccc(C)c2n1	27 °C	255 °C	–
OCCCCCCCCCCCCCCO	85.8 °C	–	–
CCCOC(=O)OCCC	–	168 °C	–
CCCCCCC/C=C\C(=O)O	12 °C	–	–
Nc1cc(N2CCCCC2)nc(N)[n+]1[O-]	248 °C	–	–
C=CCc1cc(OC)c2c(c1)OCO2	–	276 °C	–
Clc1cc(Cl)c(Cl)cc1Cl	140 °C	244 °C	log10 Henry constant (atm·m³/mol): -3; log10 Koa: 5.63; log10 Koc (L/kg): 4.1; log10 vapour pressure (mmHg): -2.27; ready biodegradability: not readily biodegradable; log10 BCF: 3.44; log10 biotransformation half-life (days): 1.79
O=Cc1ccc(Br)o1	–	201 °C	–
c1cnc2[nH]ccc2c1	106 °C	–	–
O=C(O)C1CCCC1	-7 °C	212 °C	–
Clc1cccc(Cl)c1Cl	53.5 °C	218 °C	log10 Henry constant (atm·m³/mol): -2.9; log10 Koa: 5.19; log10 Koc (L/kg): 3.33; log10 vapour pressure (mmHg): -0.678; ready biodegradability: not readily biodegradable; log10 BCF: 2.82; log10 biotransformation half-life (days): 0.92
FCCBr	–	71.5 °C	–
FC(F)C(F)(F)F	-103 °C	-48.5 °C	log10 vapour pressure (mmHg): 4.02
CCc1ccc2cc3ccccc3cc2c1	152 °C	–	log10 vapour pressure (mmHg): -5.28
O=C(O)c1ccc(C(=O)O)c2c(C(=O)O)ccc(C(=O)O)c12	320 °C	–	–
O=C(O)c1cc(Cl)ccc1[N+](=O)[O-]	139 °C	–	–
O=C1Cc2ccccc2N1	128 °C	–	–

SMILES	melting point	boiling point	other results
O=C(Cl)c1ccc(F)cc1	9 °C	–	–
O=C(O)C(Cl)(Cl)Cl	57.5 °C	196 °C	log10 Henry constant (atm·m³/mol): -7.87; log10 Koc (L/kg): 0.3; log10 vapour pressure (mmHg): -1.22; ready biodegradability: not readily biodegradable; log10 BCF: 0.23
CN(C)c1ccc(Cl)cc1	35.5 °C	231 °C	–
CC1(C)[C@H](C(=O)O)CC[C@]1(C)C(=O)O	189 °C	–	–
CN(C)c1ccccc1Cl	–	205 °C	–
CCOC(=O)CCCCC(=O)OCC	-19.8 °C	245 °C	log10 vapour pressure (mmHg): -1.24
NNCc1ccccc1	26 °C	–	–
C[C@]12CCC(=O)C=C1CC[C@@H]1[C@@H]2CC[C@@]2(C)[C@H]1CC[C@]2(C)O	163 °C	–	–
CCC(CC)C(C)(C)C	-99.3 °C	134 °C	log10 vapour pressure (mmHg): 1.05
C[SiH](O[SiH](C)O[Si](C)(C)C)O[Si](C)(C)C (configuration not stated)	–	170 °C	–
CC(C)(C)CC(C)(C)S	-74 °C	160 °C	log10 vapour pressure (mmHg): 0.716
Clc1ccc2c(c1)oc1c(Cl)cccc12	–	–	log10 biotransformation half-life (days): 0.58
Fc1ccccn1	–	127 °C	–
NC(=O)N1c2ccccc2CC(=O)c2ccccc21	216 °C	–	–
COc1ccccc1C(=O)c1ccccc1	41 °C	–	–
C#CC#C	-36.4 °C	10.3 °C	log10 vapour pressure (mmHg): 3.12
Brc1ccccc1Br	7.1 °C	225 °C	–
CC1CC1C (configuration not stated)	-145 °C	32.6 °C	–
CCCCCCC(=O)OCCCCC	-50 °C	245 °C	–
Fc1cc(F)c(F)c(F)c1	-48 °C	84.4 °C	log10 vapour pressure (mmHg): 1.86
CCOc1nc(F)cc2nc(S(=O)(=O)Nc3c(Cl)cccc3C(=O)OC)nn12	217 °C	–	–

From the OPERA property sets (Mansouri et al. 2018)
